Results as given in patent US11214803B2, “Modulators of YAP1 expression” (Ionis Pharmaceuticals, Inc., priority 2019, dated 2022).
Marks after values point to notes of the source that are not given here. Strand notation (5' to 3'): a small letter for the sugar, then the base; units joined by * are phosphorothioate-linked, units joined directly phosphodiester-linked; [ ] holds rarer units or linkages, { } end groups; capitals alone tell only the bases. k = constrained ethyl (cEt); [5mC] = 5-methylcytosine; d = 2'-deoxy (DNA)

system: Yap1 mRNA; experiment: Antisense inhibition of human Yap1 in A-431 cells by cEt gapmers, single dose (Example 3, RTS36584); type: cell-based; conditions: Table 8; A-431 cells, 5,000 cells per well, free uptake, 2,000 nM, approximately 48 hours; RTS36584; normalized to RIBOGREEN; Yap1 mRNA relative to untreated control cells
How it was run: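 A-431 cells were treated by free uptake with 2,000 nM modified oligonucleotide (3-10-3 cEt gapmers, full phosphorothioate, 5-methylcytosines) for about 48 hours. Yap1 mRNA was quantified by real-time RT-PCR, normalized to RiboGreen total RNA, and expressed as % of untreated control; asterisked values mark oligonucleotides targeting the amplicon region.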

With “958366 (antisense kT*kG*kT*dA*dG*d[5mC]*dT*dG*d[5mC]*dT*d[5mC]*dA*dT*kG*k[5mC]*kT) [Compound 958366]” the “YAP1 (% UTC)” value was 16* % UTC.

In the case of “958415 (antisense k[5mC]*kT*kG*dT*dG*dT*dA*dG*dG*d[5mC]*dT*dG*dA*k[5mC]*kT*kT) [Compound 958415]”, the “YAP1 (% UTC)” value is reported as 16 % UTC.

same assay, conditions: Table 9; A-431 cells, 5,000 cells per well, free uptake, 2,000 nM, approximately 48 hours; RTS36584; normalized to RIBOGREEN; Yap1 mRNA relative to untreated control cells

In order of falling “YAP1 (% UTC)” value:
1. 958611 (antisense kG*kA*kG*d[5mC]*dA*dT*dG*d[5mC]*dT*d[5mC]*dT*dT*dA*k[5mC]*kA*kT) [Compound 958611]  92 % UTC
2. 958576 (kG*kT*kG*dG*d[5mC]*dT*dA*d[5mC]*dT*dG*dG*d[5mC]*dA*kA*kA*kT; antisense) [Compound 958576]  53 % UTC
3. 958666 (kG*kA*kA*dA*dA*dG*dG*dG*d[5mC]*dA*dA*dT*d[5mC]*kA*kT*kA; antisense) [Compound 958666]  52 % UTC
4. 958521 (kT*kT*k[5mC]*d[5mC]*dA*dA*dT*dT*d[5mC]*dA*dT*d[5mC]*dA*kG*kA*kT; antisense) [Compound 958521]  14 % UTC
5. 958551 (k[5mC]*kT*k[5mC]*d[5mC]*dT*dG*dT*dA*dG*dA*d[5mC]*dA*d[5mC]*kA*kT*kA; antisense) [Compound 958551]  5 % UTC

same assay, conditions: Table 10; A-431 cells, 5,000 cells per well, free uptake, 2,000 nM oligonucleotide, approx. 48 hours; primer probe set RTS36584; Yap1 mRNA normalized to RIBOGREEN, percent of untreated control

In order of falling “YAP1 (% UTC)” value:
1. 958732 (antisense kA*kG*k[5mC]*dA*d[5mC]*dG*dG*dT*dG*dT*dA*dG*d[5mC]*kT*kT*kT) [Compound 958732]  60 % UTC
2. 958617 (antisense kG*kA*kG*dG*dT*dG*dG*dT*d[5mC]*dT*dT*dG*dT*kT*k[5mC]*kT) [Compound 958617]  40 % UTC
3. 958697 (antisense k[5mC]*kT*kA*dA*dA*dG*dA*dT*dG*dA*d[5mC]*dT*dA*k[5mC]*kT*kG) [Compound 958697]  39 % UTC
4. 958487 (kT*k[5mC]*k[5mC]*dA*dA*dA*d[5mC]*dA*dG*dG*d[5mC]*dT*d[5mC]*kA*k[5mC]*kT; antisense) [Compound 958487]  10 % UTC
5. 958562 (k[5mC]*kA*kT*dT*dG*dA*dA*dA*dG*dA*d[5mC]*d[5mC]*d[5mC]*kT*kT*kA; antisense) [Compound 958562]  6 % UTC

same assay, conditions: Table 11; A-431 cells, 5,000 cells per well, free uptake, 2,000 nM oligonucleotide, approx. 48 hours; primer probe set RTS36584; Yap1 mRNA normalized to RIBOGREEN, percent of untreated control

With “958723 (antisense kA*kA*k[5mC]*d[5mC]*d[5mC]*dA*d[5mC]*dT*dA*dA*dA*dA*d[5mC]*k[5mC]*kG*kG) [Compound 958723]” the “YAP1 (% UTC)” value was 63 % UTC.

same assay, conditions: Table 12; A-431 cells, 5,000 cells per well, free uptake, 2,000 nM modified oligonucleotide, approx. 48 hours; RTS36584; normalized to RIBOGREEN; Yap1 mRNA relative to untreated control cells

In order of rising “YAP1 (% UTC)” value:
1. 958644 (antisense kA*kT*kG*dA*dT*d[5mC]*dA*dA*dA*d[5mC]*d[5mC]*dT*dT*kT*kT*k[5mC]) [Compound 958644]  5 % UTC
2. 958694 (antisense kA*kT*kT*dG*dG*dT*dG*dG*dT*dG*dT*d[5mC]*dT*k[5mC]*kA*k[5mC]) [Compound 958694]  41 % UTC
3. 958444 (antisense kA*k[5mC]*kG*d[5mC]*d[5mC]*d[5mC]*d[5mC]*dG*dG*d[5mC]*dT*d[5mC]*d[5mC]*kA*k[5mC]*kG) [Compound 958444]  97 % UTC
4. 958704 (antisense k[5mC]*k[5mC]*k[5mC]*dT*dA*d[5mC]*dA*d[5mC]*dT*d[5mC]*dG*dA*dG*kG*kA*kT) [Compound 958704]  122 % UTC

same assay, conditions: Table 13; A-431 cells, 5,000 cells per well, free uptake, 2,000 nM modified oligonucleotide, approx. 48 hours; RTS36584; normalized to RIBOGREEN; Yap1 mRNA relative to untreated control cells

In order of falling “YAP1 (% UTC)” value:
1. 958475 (antisense k[5mC]*k[5mC]*kG*dG*dT*dG*d[5mC]*dA*dT*dG*dT*dG*dT*k[5mC]*kT*k[5mC]) [Compound 958475]  37 % UTC
2. 958530 (kG*kA*kG*d[5mC]*dA*dA*dG*dT*d[5mC]*dT*dT*dG*dT*kA*kA*kG; antisense) [Compound 958530]  20 % UTC
3. 958755 (antisense kT*kA*kA*d[5mC]*dA*dT*dA*dA*dG*dA*d[5mC]*dA*d[5mC]*kG*kG*kA) [Compound 958755]  12 % UTC
4. 958550 (k[5mC]*k[5mC]*kT*dG*dT*dA*dG*dA*d[5mC]*dA*d[5mC]*dA*dT*kA*k[5mC]*kT; antisense) [Compound 958550]  4 % UTC

same assay, conditions: Table 26; Yap1 mRNA by 3-10-3 cEt gapmers targeting SEQ ID NO.: 1, and 2; percent of untreated control

In order of rising “YAP1 (% UTC)” value:
1. 1075116 (k[5mC]*kT*kT*dA*dA*d[5mC]*dA*dT*dT*dT*dA*dA*dT*kG*kG*k[5mC]; antisense) [compound 1075116]  15 % UTC
2. 1075500 (kT*kA*kA*dA*dT*dT*dA*dA*dG*d[5mC]*d[5mC]*dA*dA*k[5mC]*kA*k[5mC]; antisense) [compound 1075500]  26 % UTC
3. 1075564 (kA*kT*kA*dT*dA*dA*d[5mC]*dA*dG*dG*d[5mC]*d[5mC]*dA*k[5mC]*k[5mC]*kA; antisense) [compound 1075564]  81 % UTC

same assay, conditions: Table 27; Yap1 mRNA by 3-10-3 cEt gapmers targeting SEQ ID NO.: 1, and 2; percent of untreated control

For “1075021 (antisense kT*kT*kA*d[5mC]*dA*dA*d[5mC]*d[5mC]*dT*dA*dG*dA*dT*kT*kT*kG) [compound 1075021]”, the “YAP1 (% UTC)” value was 68 % UTC.

same assay, conditions: Table 28; Yap1 mRNA as percent of untreated control; 3-10-3 cEt gapmers targeting SEQ ID NO.: 1, and 2

In order of rising “YAP1 (% UTC)” value:
1. 1075374 (antisense kG*kA*kA*dA*dA*dT*dA*d[5mC]*dT*d[5mC]*d[5mC]*dT*d[5mC]*k[5mC]*kT*kA) [compound 1075374]  27 % UTC
2. 1076238 (kG*kA*kT*dG*dA*dA*dT*dA*dG*d[5mC]*dT*dA*dA*kG*kA*kA; antisense) [compound 1076238]  30 % UTC
3. 1075278 (antisense kT*kA*kT*dA*d[5mC]*dT*dA*dA*d[5mC]*dA*dT*dT*d[5mC]*kA*k[5mC]*kG) [compound 1075278]  48 % UTC
4. 1075662 (antisense kA*kA*kG*dG*dG*dA*dT*dA*d[5mC]*dA*dA*dG*dT*kG*kT*kT) [compound 1075662]  78 % UTC

same assay, conditions: Table 29; Yap1 mRNA as percent of untreated control; 3-10-3 cEt gapmers targeting SEQ ID NO.: 1, and 2

With “1074319 (antisense kG*k[5mC]*kT*dA*dA*d[5mC]*dT*d[5mC]*d[5mC]*dT*dG*dA*d[5mC]*kA*kT*kT) [compound 1074319]” the “YAP1 (% UTC)” value was 47 % UTC.

same assay, conditions: Table 34; Yap1 mRNA as percent of untreated control; 3-10-3 cEt gapmers targeting SEQ ID NO: 1 and 2; single dose

In order of falling “YAP1 (% UTC)” value:
1. 1075476 (kT*k[5mC]*kT*dT*dA*dT*d[5mC]*d[5mC]*dT*dA*d[5mC]*dA*dG*k[5mC]*kT*kT; antisense) [compound 1075476]  75 % UTC
2. 1076020 (k[5mC]*k[5mC]*k[5mC]*d[5mC]*dA*dA*d[5mC]*dA*d[5mC]*dT*dA*dA*dT*kA*kG*kG; antisense) [compound 1076020]  60 % UTC
3. 1074228 (antisense kG*kA*k[5mC]*dT*dG*dT*d[5mC]*dG*dA*dA*dG*dA*dT*kG*k[5mC]*kT) [compound 1074228]  17 % UTC

same assay, conditions: Table 35; Yap1 mRNA as percent of untreated control; 3-10-3 cEt gapmers targeting SEQ ID NO: 1 and 2; single dose

In order of falling “YAP1 (% UTC)” value:
1. 1074133 (kG*k[5mC]*kG*dG*d[5mC]*d[5mC]*d[5mC]*d[5mC]*dG*d[5mC]*dA*dT*d[5mC]*k[5mC]*k[5mC]*k[5mC]; antisense) [compound 1074133]  101 % UTC
2. 1074645 (antisense kA*kA*kT*dT*dG*dA*dA*dG*dG*dG*d[5mC]*d[5mC]*dA*kA*kA*kA) [compound 1074645]  81 % UTC
3. 1075989 (kG*k[5mC]*kT*dA*dA*dA*dA*dT*dT*dA*dA*dG*d[5mC]*kT*kT*k[5mC]; antisense) [compound 1075989]  78 % UTC
4. 1076405 (antisense kT*kT*kA*dT*dT*dT*dA*dA*dG*dA*d[5mC]*d[5mC]*dT*kG*kG*kT) [compound 1076405]  12 % UTC
